Source: patent publication US10173983B2, “Fungicidal pyridylamidines” (Syngenta Participations AG, priority 2014, dated 2019)

Experiments:
Format in all cases: in vivo
[1] = test system: Puccinia recondita f. sp. tritici; experiment: Puccinia recondita f. sp. tritici / wheat / leaf disc curative (brown rust); conditions: foliar, wheat leaf segments cv. Kanzler, compound applied 1 day after inoculation, assessed 6-8 days after application, compared to untreated, read-out: disease control
Procedure: Puccinia recondita f. sp. tritici/Wheat/Leaf Disc Curative (Brown Rust) Wheat leaf segments cv. Kanzler are placed on agar in multiwell plates (24-well format). The leaf segments are inoculated with a spore suspension of the fungus. Plates were stored in darkness at 19° C. and 75% rh. The formulated test compound diluted in water was applied 1 day after inoculation. The leaf segments were incubated at 19° C. and 75% rh under a light regime of 12 h light/12 h darkness in a climate cabinet and the activity of a compound was assessed as percent disease control compared to untreated when an appropriate level of disease damage appears in untreated check leaf segments (6-8 days after application). The following compounds gave at 200 ppm gave at least 80% disease control in this test when compared to untreated control leaf disks under the same conditions, which show extensive disease development: […]

[2] = test system: Puccinia recondita f. sp. tritici; experiment: Puccinia recondita f. sp. tritici / wheat / leaf disc preventative (brown rust); conditions: foliar, 168 h, wheat leaf segments cv. Kanzler, inoculated 1 day after application, assessed 7-9 days after application, compared to untreated, read-out: disease control
Procedure: Puccinia recondita f. sp. tritici/Wheat/Leaf Disc Preventative (Brown Rust) Wheat leaf segments cv. Kanzler were placed on agar in multiwell plates (24-well format) and sprayed with the formulated test compound diluted in water. The leaf disks were inoculated with a spore suspension of the fungus 1 day after application. The inoculated leaf segments were incubated at 19° C. and 75% rh under a light regime of 12 h light/12 h darkness in a climate cabinet and the activity of a compound was assessed as percent disease control compared to untreated when an appropriate level of disease damage appears in untreated check leaf segments (7-9 days after application). The following compounds gave at 200 ppm gave at least 80% disease control in this test when compared to untreated control leaf disks under the same conditions, which show extensive disease development: […]

[3] = test system: Blumeria graminis f. Sp. tritici (Erysiphe graminis f. sp. tritici); experiment: Blumeria graminis f. sp. tritici / wheat / leaf disc preventative (powdery mildew on wheat); conditions: foliar, wheat leaf segments cv. Kanzler, inoculated 1 day after application, assessed 6-8 days after application, compared to untreated, read-out: disease control
Procedure: Blumeria graminis f. Sp. tritici (Erysiphe graminis f. sp. tritici)/Wheat/Leaf Disc Preventative (Powdery Mildew on Wheat) Wheat leaf segments cv. Kanzler were placed on agar in a multiwell plate (24-well format) and sprayed with the formulated test compound diluted in water. The leaf disks were inoculated by shaking powdery mildew infected plants above the test plates 1 day after application. The inoculated leaf disks were incubated at 20° C. and 60% rh under a light regime of 24 h darkness followed by 12 h light/12 h darkness in a climate chamber and the activity of a compound was assessed as percent disease control compared to untreated when an appropriate level of disease damage appears on untreated check leaf segments (6-8 days after application). The following compounds gave at 200 ppm give at least 80% disease control in this test when compared to untreated control leaf disks under the same conditions, which show extensive disease development: […]

Phakopsora pachyrhizi = Phakopsora pachyrhizi on soybean, preventive treatment; conditions: 264 h, 1 day preventive, triazole tolerant soybean rust strain, evaluated 11 days after application, compared to untreated, read-out: disease control
Procedure: Phakopsora pachyrhizi on Soybean, Preventive Treatment
The compound activity was tested under 1 day preventive conditions. Soybean plants with a fully enfolded first trifoliate leaf were sprayed with a track sprayer and 50 l/ha spray volume with the test compounds, either solo or in tankmix as shown in the table below. 1 day after application leaf discs were cut from the first trifoliate leaf and placed in multiwell plates on water-agar. 5 leaf discs per treatment where infested with spores of a triazole tolerant soybean rust strain. The multiwell plates where sealed and placed in an incubator 48 h in darkness and 12 h light/dark cycle afterwards. Rust infestation on leaf discs was evaluated visually 11 days after application and average activity calculated in relation to disease severity on untreated check leaf discs.
The following compounds gave at 200 ppm gave at least 80% disease control in this test when compared to untreated control leaf disks under the same conditions, which show extensive disease development: […]

Measured: pest or weed control at 200 ppm

CCCOCC(C)Oc1nc(C)c(/N=C/N(C)CC)cc1Br (stereo in doubt) [Q.002, N′-[5-bromo-2-methyl-6-[(1S)-1-methyl-2-propoxy-ethoxy]-3-pyridyl]-N-ethyl-N-methyl-formamidine]
≥ 80%: all assays above

CCCOCC(C)Oc1nc(C)c(/N=C/N(C)CC)cc1C#N (centres unmarked) [Q.007, N′-[5-cyano-2-methyl-6-(1-methyl-2-propoxy-ethoxy)-3-pyridyl]-N-ethyl-N-methyl-formamidine]
≥ 80%: all assays above

CCCOCC(C)Oc1nc(C)c(N=CN(C)CC)cc1C(F)F (centres unmarked) [Q.009, N′-[5-(difluoromethyl)-2-methyl-6-(1-methyl-2-propoxy-ethoxy)-3-pyridyl]-N-ethyl-N-methyl-formamidine]
≥ 80%: all assays above

CCCOCC(C)Oc1nc(C)c(N=CN(C)CC)cc1OC(F)F (centres unmarked) [Q.010, N′-[5-(difluoromethoxy)-2-methyl-6-(1-methyl-2-propoxy-ethoxy)-3-pyridyl]-N-ethyl-N-methyl-formamidine]
≥ 80%: all assays above

CCCOCC(C)Oc1nc(C)c(N=CN(C)CC)cc1C (centres unmarked) [Q.011, N′-[2,5-dimethyl-6-(1-methyl-2-propoxy-ethoxy)-3-pyridyl]-N-ethyl-N-methyl-formamidine]
≥ 80%: all assays above

CCCOCC(C)Oc1ccc(N=CN(C)CC)c(C)n1 (centres unmarked) [Q.012, N-ethyl-N-methyl-N′-[2-methyl-6-(1-methyl-2-propoxy-ethoxy)-3-pyridyl]formamidine]
≥ 80%: [1] | Phakopsora pachyrhizi

CCCOCC(C)Oc1nc(C)c(/N=C/N(C)CC)cc1Br (centres unmarked) [Q.013, N′-[5-bromo-2-methyl-6-(1-methyl-2-propoxy-ethoxy)-3-pyridyl]-N-ethyl-N-methyl-formamidine]
≥ 80%: all assays above

C=CCOCC(C)Oc1nc(C)c(N=CN(C)CC)cc1Cl (centres unmarked) [Q.014, N′-[6-(2-allyloxy-1-methyl-ethoxy)-5-chloro-2-methyl-3-pyridyl]-N-ethyl-N-methyl-formamidine]
≥ 80%: all assays above

CCCOCC(C)Oc1nc(C)c(/N=C/N(C)CC)cc1Cl (centres unmarked) [Q.015, N′-[5-chloro-2-methyl-6-(1-methyl-2-propoxy-ethoxy)-3-pyridyl]-N-ethyl-N-methyl-formamidine]
≥ 80%: all assays above

C=CCOCC(COC)Oc1nc(C)c(N=CN(C)CC)cc1Br (centres unmarked) [Q.016, N′-[6-[1-(allyloxymethyl)-2-methoxy-ethoxy]-5-bromo-2-methyl-3-pyridyl]-N-ethyl-N-methyl-formamidine]
≥ 80%: all assays above

C=CCOCC(C)Oc1nc(C)c(N=CN(C)CC)cc1C#N (centres unmarked) [Q.017, N′-[6-(2-allyloxy-1-methyl-ethoxy)-5-cyano-2-methyl-3-pyridyl]-N-ethyl-N-methyl-formamidine]
≥ 80%: all assays above

CCCOCC(C)Oc1nc(C)c(N=CN(C)C(C)C)cc1Br (centres unmarked) [Q.018, N′-[5-bromo-2-methyl-6-(1-methyl-2-propoxy-ethoxy)-3-pyridyl]-N-isopropyl-N-methyl-formamidine]
≥ 80%: all assays above

CCCOCC(C)Oc1nc(C)c(/N=C/N(C)CC)cc1C(=O)OC (centres unmarked) [Q.019, Methyl 5-[(E)-[ethyl(methyl)amino]methylene-amino]-6-methyl-2-(1-methyl-2-propoxy-ethoxy)pyridine-3-carboxylate]
≥ 80%: [1] | Phakopsora pachyrhizi

CCN(C)C=Nc1cc(C#N)c(OC(C)COc2cccc(C(F)(F)F)c2)nc1C (centres unmarked) [Q.020, N′-[5-cyano-2-methyl-6-[1-methyl-2-[3-(trifluoromethyl)phenoxy]ethoxy]-3-pyridyl]-N-ethyl-N-methyl-formamidine]
≥ 80%: all assays above

CCN(C)C=Nc1cc(C#N)c(OC(C)COc2ccc(Cl)cc2)nc1C (centres unmarked) [Q.021, N′-[6-[2-(4-chlorophenoxy)-1-methyl-ethoxy]-5-cyano-2-methyl-3-pyridyl]-N-ethyl-N-methyl-formamidine]
≥ 80%: [1] | [2] | [3]

CCN(C)C=Nc1cc(C#N)c(OC(C)COc2ccccc2)nc1C (centres unmarked) [Q.022, N′-[5-cyano-2-methyl-6-(1-methyl-2-phenoxy-ethoxy)-3-pyridyl]-N-ethyl-N-methyl-formamidine]
≥ 80%: [1] | [2] | [3]

CCN(C)C=Nc1cc(Cl)c(OC(C)COc2cccc(C(F)(F)F)c2)nc1C (centres unmarked) [Q.023, N′-[5-chloro-2-methyl-6-[1-methyl-2-[3-(trifluoromethyl)phenoxy]ethoxy]-3-pyridyl]-N-ethyl-N-methyl-formamidine]
≥ 80%: all assays above

CCN(C)C=Nc1cc(Cl)c(OC(C)COc2ccc(Cl)cc2)nc1C (centres unmarked) [Q.024, N′-[5-chloro-6-[2-(4-chlorophenoxy)-1-methyl-ethoxy]-2-methyl-3-pyridyl]-N-ethyl-N-methyl-formamidine]
≥ 80%: all assays above

CCN(C)C=Nc1cc(Cl)c(OC(C)COc2ccccc2)nc1C (centres unmarked) [Q.025, N′-[5-chloro-2-methyl-6-(1-methyl-2-phenoxy-ethoxy)-3-pyridyl]-N-ethyl-N-methyl-formamidine]
≥ 80%: all assays above

CCN(C)C=Nc1cc(Br)c(OC(C)COc2ccc(Cl)cc2)nc1C (centres unmarked) [Q.026, N′-[5-bromo-6-[2-(4-chlorophenoxy)-1-methyl-ethoxy]-2-methyl-3-pyridyl]-N-ethyl-N-methyl-formamidine]
≥ 80%: all assays above

CCN(C)C=Nc1cc(Br)c(OC(C)COc2cccc(C(F)(F)F)c2)nc1C (centres unmarked) [Q.027, N′-[5-bromo-2-methyl-6-[1-methyl-2-[3-(trifluoromethyl)phenoxy]ethoxy]-3-pyridyl]-N-ethyl-N-methyl-formamidine]
≥ 80%: [1] | [3] | Phakopsora pachyrhizi
